Measured values reported in patent EP3248604A1, “AGENTS FOR MODULATION OF WNT-TCF SIGNALLING AND USES THEREOF” (UNIVERSITE DE GENEVE, priority 2016, dated 2017).

Tests used:
WNT-TCF targets [1] = experiment: RT-qPCR gene expression in HT29 cells; format: cell-based, human; settings: 16h, batch 3, vs DMSO=1
Description: (§1) RT-qPCR was performed as in Melotti et al. (2014, supra) using BioRad equipment and reagents. Cells cultured in nitro were treated with the desired concentration of drug in DMEM-F12 and reduced serum (2.5% FBS) for 16h, unless otherwise noted, and collected in Trizol (Sigma) before total RNA extraction and cDNA synthesis. Primers were as in Table 1. HPRT (gene encoding Hypoxanthine phosphoribosyltransferase 1) and βACTIN were used as housekeeping controls for normalization.
(§2) Primary colon cells CC14, CC36 and mCC11, colon cancer cell lines DLD1, HT29, Ls174T, melanoma cell line MeWo, glioblastoma cell lines U87 and U251, and the lung cancer cell line H358 were cultured in DMEM-F12 with 10% FBS under standard in nitro conditions.

WNT-TCF targets [2] = experiment: RT-qPCR gene expression in CC36 primary colon cancer cells; format: cell-based, human; settings: 16h, batch 3, vs DMSO=1
Description: as §1, §2

WNT-TCF targets [3] = experiment: RT-qPCR gene expression in mCC11 primary colon cancer cells; format: cell-based, human
Description: as §1, §2

WNT-TCF targets [4] = experiment: RT-qPCR gene expression in U87 glioblastoma cells; format: cell-based, human; settings: 16h, batch 3, vs DMSO=1
Description: as §1, §2

WNT-TCF targets [5] = experiment: RT-qPCR gene expression in H358 lung cancer cells; format: cell-based, human; settings: 16h, batch 3, vs DMSO=1
Description: as §1, §2

TCF targets = experiment: Microarray transcriptome analysis in Ls174T cells; format: cell-based, human; settings: 16h
Description: Cells treated with compounds were collected in Trizol and RNA was harvested using standard protocols. Quality and quantity of RNA was checked using Nano Series (Agilent Technologies). Samples with a RNA Integrity Number (RIN) >9/10 were chosen and cDNA and cRNA samples were prepared using GeneChip IVT Express kit. Genechip hybridization was done using the same kit and applied to PrimeView U219 human array (Affymetrix) in the Genomic Platform at the Faculty of Medicine, University of Geneva.
To test the effects of CAP2 on the transcriptome in a genome-wide manner microarray analyses with Ls174T cells were performed as these have been previously used to determine the genome-wide changes driven by dnTCF activity (van der Flier et al., 2007, Gastroenterology, 132(2): 628-32), the genetic benchmark use here. Ls174T cells were treated with 5 µM CAP2 (batch 3) for 16h, and their transcriptome compared with that of controls treated with DMSO under the same conditions. This dose was chosen since it results in extended WNT-TCF target gene modulation (Table 6).

Epigenetic regulators [6] = experiment: RT-qPCR of epigenetic regulators in HT29 cells; format: cell-based, human; settings: 0.5 µM
Description: as §1
(§3) The WNT-TCF-independent repressive activity of CAP2 on epigenetic regulators may be extrapolated to other cancer cells as it was also detected in HT29 and CC14 human colon cancer cells, in MeWo human melanoma cells as well as in U87 and U251 human glioma cells. In all these different human cancer cells, CAP2 (at 0.5 µM) modulated the expression of ZMYND8, SMARCAL1, TBLIXR1, SETD6 and TAF5Ls (Table 15).

Epigenetic regulators [7] = experiment: RT-qPCR of epigenetic regulators in MeWo cells; format: cell-based, human; settings: 0.5 µM
Description: as §1, §3

Epigenetic regulators [8] = experiment: RT-qPCR of epigenetic regulators in U87 cells; format: cell-based, human; settings: 0.5 µM
Description: as §1, §3

Epigenetic regulators [9] = experiment: RT-qPCR of epigenetic regulators in U251 cells; format: cell-based, human; settings: 0.5 µM
Description: as §1, §3

Ls174T cells = settings: FACS, vs DMSO
Description: (§4) Cell were plated with different concentrations of compounds in a 96-well format and incubated in standard conditions for 6h and imaged. Active (cleaved) Caspase-3^+ apoptosis was determined using the BD Pharmigen kit and FACS (fluorescence-activated cell sorting).

DLD1 cells = settings: FACS, vs DMSO
Description: as §4

[10] = 1.25µM, 16h, batch 3, vs DMSO=1
[11] = Table 9, microarray, Ls174T, 5 µM (batch 3), vs DMSO
[12] = Table 10, Microarray, CAP2 5 µM
[13] = microarray, Ls174T, 5 µM, vs DMSO

CC1=C(C)C(=O)O[C@@H]([C@](C)(O)[C@]2(O)CC[C@@]3(O)[C@@H]4CC=C5CC=CC(=O)[C@]5(C)[C@H]4CC[C@]23C)C1 [CAP2]
AXIN2 expression (WNT-TCF targets [1]; 1.25µM): 0.8 | LGR5 expression (WNT-TCF targets [1]; 1.25µM): 0.8 | AXIN2 expression (WNT-TCF targets [1]; 2.5µM): 0.9 | LGR5 expression (WNT-TCF targets [1]; 2.5µM): 0.7 | AXIN2 expression (WNT-TCF targets [1]; 5µM): 0.8 | LGR5 expression (WNT-TCF targets [1]; 5µM): 0.3 | AXIN2 expression (WNT-TCF targets [1]; 10µM): 0.4 | LGR5 expression (WNT-TCF targets [1]; 10µM): 0.1 | AXIN2 expression (WNT-TCF targets [2]; 1.25µM): 1.2 | AXIN2 expression (WNT-TCF targets [2]; 2.5µM): 0.6 | AXIN2 expression (WNT-TCF targets [2]; 5µM): 0.4 | AXIN2 expression (WNT-TCF targets [2]; 10µM): 0.4 | AXIN2 expression (WNT-TCF targets [3]; [10]): 0.6 | LGR5 expression (WNT-TCF targets [3]; [10]): 0.8 | AXIN2 expression (WNT-TCF targets [3]; 2.5µM, 16h, batch 3, vs DMSO=1): 0.5 | LGR5 expression (WNT-TCF targets [3]; 2.5µM, 16h, batch 3, vs DMSO=1): 0.3 | AXIN2 expression (WNT-TCF targets [3]; 5µM, 16h, batch 3, vs DMSO=1): 0.3 | LGR5 expression (WNT-TCF targets [3]; 5µM, 16h, batch 3, vs DMSO=1): 0.1 | AXIN2 expression (WNT-TCF targets [3]; 10µM, 16h, batch 3, vs DMSO=1): 0.3 | LGR5 expression (WNT-TCF targets [3]; 10µM, 16h, batch 3, vs DMSO=1): 0.04 | ASCL2 expression (WNT-TCF targets [3]; Table 7, 1.25µM, vs DMSO=1): 0.3 | AXIN2 expression (WNT-TCF targets [3]; Table 7, 1.25µM, vs DMSO=1): 0.6 | CDKN1A expression (WNT-TCF targets [3]; Table 7, 1.25µM, vs DMSO=1): 1.4 | LEF1 expression (WNT-TCF targets [3]; Table 7, 1.25µM, vs DMSO=1): 0.3 | LGR5 expression (WNT-TCF targets [3]; Table 7, 1.25µM, vs DMSO=1): 0.8 | cMYC expression (WNT-TCF targets [3]; Table 7, 1.25µM, vs DMSO=1): 0.5 | ASCL2 expression (WNT-TCF targets [3]; Table 7, 2.5µM, vs DMSO=1): 0.2 | AXIN2 expression (WNT-TCF targets [3]; Table 7, 2.5µM, vs DMSO=1): 0.5 | CDKN1A expression (WNT-TCF targets [3]; Table 7, 2.5µM, vs DMSO=1): 2.7 | LEF1 expression (WNT-TCF targets [3]; Table 7, 2.5µM, vs DMSO=1): 0.4 | LGR5 expression (WNT-TCF targets [3]; Table 7, 2.5µM, vs DMSO=1): 0.3 | cMYC expression (WNT-TCF targets [3]; Table 7, 2.5µM, vs DMSO=1): 0.3 | ASCL2 expression (WNT-TCF targets [3]; Table 7, 5µM, vs DMSO=1): 0.1 | AXIN2 expression (WNT-TCF targets [3]; Table 7, 5µM, vs DMSO=1): 0.3 | CDKN1A expression (WNT-TCF targets [3]; Table 7, 5µM, vs DMSO=1): 6.5 | LEF1 expression (WNT-TCF targets [3]; Table 7, 5µM, vs DMSO=1): 0.5 | LGR5 expression (WNT-TCF targets [3]; Table 7, 5µM, vs DMSO=1): 0.1 | cMYC expression (WNT-TCF targets [3]; Table 7, 5µM, vs DMSO=1): 0.1 | ASCL2 expression (WNT-TCF targets [3]; Table 7, 10µM, vs DMSO=1): 0.02 | AXIN2 expression (WNT-TCF targets [3]; Table 7, 10µM, vs DMSO=1): 0.3 | CDKN1A expression (WNT-TCF targets [3]; Table 7, 10µM, vs DMSO=1): 5.3 | LEF1 expression (WNT-TCF targets [3]; Table 7, 10µM, vs DMSO=1): 0.6 | LGR5 expression (WNT-TCF targets [3]; Table 7, 10µM, vs DMSO=1): 0.04 | cMYC expression (WNT-TCF targets [3]; Table 7, 10µM, vs DMSO=1): 0.1 | AXIN2 expression (WNT-TCF targets [4]; 1.25µM): 0.7 | LGR5 expression (WNT-TCF targets [4]; 1.25µM): 0.3 | AXIN2 expression (WNT-TCF targets [4]; 2.5µM): 0.5 | LGR5 expression (WNT-TCF targets [4]; 2.5µM): 0.3 | AXIN2 expression (WNT-TCF targets [4]; 5µM): 0.5 | LGR5 expression (WNT-TCF targets [4]; 5µM): 0.2 | AXIN2 expression (WNT-TCF targets [4]; 10µM): 0.6 | LGR5 expression (WNT-TCF targets [4]; 10µM): 0.2 | AXIN2 expression (WNT-TCF targets [5]; 1.25µM): 0.8 | LEF1 expression (WNT-TCF targets [5]; 1.25µM): 0.4 | AXIN2 expression (WNT-TCF targets [5]; 2.5µM): 0.7 | LEF1 expression (WNT-TCF targets [5]; 2.5µM): 0.6 | AXIN2 expression (WNT-TCF targets [5]; 5µM): 0.6 | LEF1 expression (WNT-TCF targets [5]; 5µM): 0.4 | AXIN2 expression (WNT-TCF targets [5]; 10µM): 0.4 | LEF1 expression (WNT-TCF targets [5]; 10µM): 0.2 | ASCL2 Fold change (TCF targets; [11]): -9 | AXIN2 Fold change (TCF targets; [11]): -4 | CDKN1A Fold change (TCF targets; [11]): 9 | LGR5 Fold change (TCF targets; [11]): -15 | cMYC Fold change (TCF targets; [11]): -10 | ASCL2 Fold change, Ls174T cells (TCF targets; [12]): -9.1 | AXIN2 Fold change, Ls174T cells (TCF targets; [12]): -4.1 | LGR5 Fold change, Ls174T cells (TCF targets; [12]): -15.1 | cMYC Fold change, Ls174T cells (TCF targets; [12]): -10.2 | share of the 106-gene set of TCF targets repressed by 1.5-fold or more (TCF targets; microarray, Ls174T, 5 µM): 70% | downregulation of ASCL2 (TCF targets; [13]): 9 fold | downregulation of AXIN2 (TCF targets; [13]): 4 fold | downregulation of LGR5 (TCF targets; [13]): 15 fold | EED expression (Epigenetic regulators [6]): 0.3 | SETD6 expression (Epigenetic regulators [6]): 0.2 | SMARCAL1 expression (Epigenetic regulators [6]): 0.2 | TAF5L expression (Epigenetic regulators [6]): 0.4 | TBL1XR1 expression (Epigenetic regulators [6]): 0.02 | ZMYND8 expression (Epigenetic regulators [6]): 0.1 | EED expression (Epigenetic regulators [7]): 0.5 | SETD6 expression (Epigenetic regulators [7]): 1 | SMARCAL1 expression (Epigenetic regulators [7]): 0.2 | TAF5L expression (Epigenetic regulators [7]): 0.8 | TBL1XR1 expression (Epigenetic regulators [7]): 0.2 | ZMYND8 expression (Epigenetic regulators [7]): 0.1 | EED expression (Epigenetic regulators [8]): 0.2 | SETD6 expression (Epigenetic regulators [8]): 0.3 | SMARCAL1 expression (Epigenetic regulators [8]): 0.2 | TAF5L expression (Epigenetic regulators [8]): 0.5 | TBL1XR1 expression (Epigenetic regulators [8]): 0.2 | ZMYND8 expression (Epigenetic regulators [8]): 0.1 | EED expression (Epigenetic regulators [9]): 0.8 | SETD6 expression (Epigenetic regulators [9]): 0.9 | SMARCAL1 expression (Epigenetic regulators [9]): 0.5 | TAF5L expression (Epigenetic regulators [9]): 1.1 | TBL1XR1 expression (Epigenetic regulators [9]): 0.6 | ZMYND8 expression (Epigenetic regulators [9]): 0.4 | concentration from which activated Caspase3 labeled cells increase (Ls174T cells): 2.5 µM | concentration from which activated Caspase3 labeled cells increase (DLD1 cells): 2.5 µM
